Assays:
TERT keratinocytes (tKC) = test: Cell Titer-Glo assay measuring ATP activity, used for normalization; format: cell-based, human; settings: example calculation; vehicle control 704567
Protocol: TERT keratinocytes (tKC) are human keratinocytes which have been transfected with the human telomerase reverse transcriptase gene to immortalize the cells. They are obtained from Jerry Shay, University of Texas, Southwestern and plated at 40,000 cells/well into 24-well plates in 1 ml/well volume. EpiLife Medium (Life Technologies cat #[…]500) supplemented with keratinocyte growth supplement (Life technologies cat #S-001-5) is used as the assay media. The cells are grown to confluence/near confluence, (typically 24 hours after plating 40,000 cells/well in 24 well plate) and then subjected to 15 mJ/cm^2 UVB-stress (typically 14-16 exposure time in BioSun). […] The supernatant is removed from each well, and the cells are rinsed with 2 ml/well medium (without supplements). A Cell Titer-Glo assay (Promega cat #G7571; Madison Wis.) is used to measure ATP activity, which is conducted on the cells for normalization. The supernatant is tested in a PGE2 assay (Prostaglandin E2 Assay kit from Cisbio Bioassays cat #62P2APEB) according to the manufacturer's instructions. The PGE2 results are normalized to ATP activity. The PGE2 quantitation (pg/mL) from the supernatant is divided by the normalization factor (treatment ATP/control ATP).

[1] = system: PGE2 release from TERT keratinocytes (tKC); test: PGE2 assay: inhibition of PGE2 release from UVB-stressed keratinocytes, normalized to ATP; format: cell-based, human; settings: for AVG PGE2 % Control / AVG PGE2 % Inhibition: piroctone olamine 1E-7% (w/v), alone or combined (observed), 15 mJ/cm2 UVB, 18-24 h; for Inhibiting PGE2 release from keratinocytes, individually (in words): each material alone
Description: Inhibiting the Cell's Inflammation Response to a Stressor-Prostaglandin E2 (“PGE2”) Assay. […] PGE2 is a hormone-like substance that is known to participate in modulation of inflammation. Cellular inflammation is associated with a variety of hair, skin and scalp conditions, and thus inhibiting PGE2 activation vis-à-vis cellular inflammation may help treat these types of hair, skin and scalp conditions. TERT keratinocytes (tKC) are human keratinocytes which have been transfected with the human telomerase reverse transcriptase gene to immortalize the cells. They are obtained from Jerry Shay, University of Texas, Southwestern and plated at 40,000 cells/well into 24-well plates in 1 ml/well volume. EpiLife Medium (Life Technologies cat #[…]500) supplemented with keratinocyte growth supplement (Life technologies cat #S-001-5) is used as the assay media. The cells are grown to confluence/near confluence, (typically 24 hours after plating 40,000 cells/well in 24 well plate) and then subjected to 15 mJ/cm^2 UVB-stress (typically 14-16 exposure time in BioSun). […] The supernatant is removed from each well, and the cells are rinsed with 2 ml/well medium (without supplements). A Cell Titer-Glo assay (Promega cat #G7571; Madison Wis.) is used to measure ATP activity, which is conducted on the cells for normalization. The supernatant is tested in a PGE2 assay (Prostaglandin E2 Assay kit from Cisbio Bioassays cat #62P2APEB) according to the manufacturer's instructions. The PGE2 results are normalized to ATP activity. The PGE2 quantitation (pg/mL) from the supernatant is divided by the normalization factor (treatment ATP/control ATP). […] Synergy factor is simply the ratio of observed combination/expected combination.

[2] = cited from earlier work
[3] = 1:1 azoxystrobin:PO block, azoxystrobin 1E-7%
[4] = 1:10 azoxystrobin:PO block, azoxystrobin 1E-8%
[5] = 1:50 azoxystrobin:PO block, azoxystrobin 2E-9%
[6] = 4:1 azoxystrobin:PO block, azoxystrobin 4E-7%

Compound	Luminescence in ATP assay (TERT keratinocytes (tKC))	AVG PGE2 % Control [1, 3]	AVG PGE2 % Inhibition [1, 3]	AVG PGE2 % Control [1, 4]	AVG PGE2 % Inhibition [1, 4]	AVG PGE2 % Control [1, 5]	AVG PGE2 % Inhibition [1, 5]	AVG PGE2 % Control [1, 6]	AVG PGE2 % Inhibition [1, 6]	Inhibiting PGE2 release from keratinocytes, individually (in words) [1]	% inhibition (PGE2) ([1]; example calculation vs vehicle control)	Normalized PGE2 value ([1]; example calculation, PGE2 quantitation divided by normalization factor, control 2458)	PGE2 quantitation ([1]; example calculation, supernatant, before ATP normalization, vehicle control 2458 pg/mL)	Solubility in water (in words) [2]
CO/C=C(/C(=O)OC)c1ccccc1Oc1cc(Oc2ccccc2C#N)ncn1 [azoxystrobin]	678903	92%	8%	99%	1%	99%	1%	87%	13%	relatively weak	8%	2261	2347 pg/mL	low solubility in water
Cc1cc(CC(C)CC(C)(C)C)n(O)c(=O)c1.NCCO (centres unmarked) [piroctone olamine, 1-Hydroxy-4-methyl-6-(2,4,4-trimethylpentyl)-2-pyridone monoethanolamine salt]	–	96.5%	3.5%	96.2%	3.8%	96.2%	3.8%	96.2%	3.8%	relatively weak	–	–	–	–
